Experimental data reported in PMC8535866, “TMEM16A, a Homoharringtonine Receptor, as a Potential Endogenic Target for Lung Cancer Treatment” (International Journal of Molecular Sciences, 2021).
Numbering of substitutions follows the chain as printed.

How the values were obtained:
TMEM16A [1] = target: T1, TMEM16A (Mus musculus, UniProt Q8BHY3, K769A); test: whole-cell patch clamp of TMEM16A mutant; format: cell-based
T1 construct: gene Ano1; TMEM16A mutant plasmid
T1 sequence (Q8BHY3 1-960 K769A): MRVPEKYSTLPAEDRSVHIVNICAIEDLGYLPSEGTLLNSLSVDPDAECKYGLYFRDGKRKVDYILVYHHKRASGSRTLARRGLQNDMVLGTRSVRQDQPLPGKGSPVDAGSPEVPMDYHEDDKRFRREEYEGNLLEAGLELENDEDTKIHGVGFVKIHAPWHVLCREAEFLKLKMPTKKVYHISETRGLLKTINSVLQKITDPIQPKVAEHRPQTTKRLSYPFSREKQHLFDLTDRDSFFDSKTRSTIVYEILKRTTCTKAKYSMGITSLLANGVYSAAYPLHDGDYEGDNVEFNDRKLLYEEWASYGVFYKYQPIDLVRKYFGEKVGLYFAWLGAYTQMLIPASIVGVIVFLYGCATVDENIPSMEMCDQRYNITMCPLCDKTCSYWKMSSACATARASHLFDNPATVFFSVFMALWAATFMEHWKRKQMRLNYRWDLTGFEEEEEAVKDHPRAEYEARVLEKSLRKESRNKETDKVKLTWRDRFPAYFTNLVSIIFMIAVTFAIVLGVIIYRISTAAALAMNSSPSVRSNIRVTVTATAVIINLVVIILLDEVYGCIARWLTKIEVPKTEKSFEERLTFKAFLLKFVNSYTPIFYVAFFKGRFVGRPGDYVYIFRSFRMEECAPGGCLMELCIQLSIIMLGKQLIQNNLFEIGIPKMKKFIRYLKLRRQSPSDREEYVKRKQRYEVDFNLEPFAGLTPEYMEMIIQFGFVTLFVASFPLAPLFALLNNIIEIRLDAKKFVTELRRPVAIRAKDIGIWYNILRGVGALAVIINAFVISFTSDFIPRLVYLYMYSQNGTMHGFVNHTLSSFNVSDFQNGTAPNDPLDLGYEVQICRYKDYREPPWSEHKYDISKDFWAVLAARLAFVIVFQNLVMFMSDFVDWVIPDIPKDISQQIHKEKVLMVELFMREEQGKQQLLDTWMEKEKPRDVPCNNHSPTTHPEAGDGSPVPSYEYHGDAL

TMEM16A [2] = target: T2, TMEM16A (Mus musculus, UniProt Q8BHY3); test: whole-cell patch clamp in LA795 cells, Hill fit; format: cell-based
T2 construct: gene Ano1; endogenous TMEM16A in LA795 cells
T2 sequence (Q8BHY3 1-960): T1 sequence (Q8BHY3 1-960 K769A) with A769K

COC(=O)C[C@](O)(CCCC(C)(C)O)C(=O)O[C@@H]1C(OC)=C[C@]23CCCN2CCc2cc4c(cc2[C@H]13)OCO4 [HHT, Homoharringtonine]
IC50 (TMEM16A [1]): 70.8 ± 24.3 µM | IC50 (TMEM16A [2]): 11.4 ± 1.68 µM
